Biological target: BRAF^V600E protein (Homo sapiens, UniProt P15056, V600E)
Test: HiBiT cellular BRAF V600E degradation assay
Type: cell-based
Conditions: 24 h incubation; for DC50: A375.10 cells (HiBiT tag knocked in at N-terminal of BRAF V600E), concentration at which 50% of total cellular BRAF V600E is degraded; for Emax: A375.10 cells, Emax = amount of residual protein remaining in the cell after compound treatment, read-out: HiBit 24 h Emax

BRAF^V600E protein, sequence (P15056 whole entry V600E): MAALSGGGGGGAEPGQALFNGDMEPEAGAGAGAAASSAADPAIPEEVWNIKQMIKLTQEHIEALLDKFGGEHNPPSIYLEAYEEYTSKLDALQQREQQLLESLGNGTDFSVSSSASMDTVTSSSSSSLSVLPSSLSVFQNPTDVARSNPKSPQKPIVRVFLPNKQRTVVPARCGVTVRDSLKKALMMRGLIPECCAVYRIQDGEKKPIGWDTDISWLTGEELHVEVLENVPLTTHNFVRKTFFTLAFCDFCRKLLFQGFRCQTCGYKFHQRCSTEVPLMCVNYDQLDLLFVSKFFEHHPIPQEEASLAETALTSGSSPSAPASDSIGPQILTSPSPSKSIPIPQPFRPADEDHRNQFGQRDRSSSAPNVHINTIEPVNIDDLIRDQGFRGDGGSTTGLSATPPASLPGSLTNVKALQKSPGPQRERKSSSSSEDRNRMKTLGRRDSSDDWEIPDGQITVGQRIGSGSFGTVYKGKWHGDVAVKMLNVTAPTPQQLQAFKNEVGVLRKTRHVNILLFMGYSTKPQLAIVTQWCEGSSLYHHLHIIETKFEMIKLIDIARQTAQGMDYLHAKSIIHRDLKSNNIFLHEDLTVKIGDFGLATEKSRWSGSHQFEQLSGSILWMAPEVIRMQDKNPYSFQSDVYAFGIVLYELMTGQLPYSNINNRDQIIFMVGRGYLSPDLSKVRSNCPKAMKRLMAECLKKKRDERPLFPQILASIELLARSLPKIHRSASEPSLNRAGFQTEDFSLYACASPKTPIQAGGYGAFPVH

Row | Structure (SMILES) | DC50 | Emax
1 | CCN(C)S(=O)(=O)Nc1ccc(F)c(C(=O)c2c[nH]c3ncc(-c4ccc(N5CCN(C(=O)CN6CCC(N7CCN(C8CCC(=O)NC8=O)C(=O)C7)C(F)(F)C6)CC5)cc4)cc23)c1F (centres unmarked) [Example 172, 5-[4-[4-[2-[4-[4-(2,6-dioxo-3-piperidyl)-3-oxo-piperazin-1-yl]-3,3-difluoro-1-piperidyl]acetyl]piperazin-1-yl]phenyl]-3-[3-[[ethyl(methyl)sulfamoyl]amino]-2,6-difluoro-benzoyl]-1H-pyrrolo[2,3-b]pyridine] | 4.67 nM | 6.28%
2 | CCN(C)S(=O)(=O)Nc1ccc(F)c(C(=O)c2c[nH]c3ncc(-c4cnc(N5CCN(C(=O)CN6CCC(N7CCN(C8CCC(=O)NC8=O)C(=O)C7)C(F)(F)C6)CC5)nc4)cc23)c1F (centres unmarked) [Example 173, 5-[2-[4-[2-[4-[4-(2,6-dioxo-3-piperidyl)-3-oxo-piperazin-1-yl]-3,3-difluoro-1-piperidyl]acetyl]piperazin-1-yl]pyrimidin-5-yl]-3-[3-[[ethyl(methyl)sulfamoyl]amino]-2,6-difluoro-benzoyl]-1H-pyrrolo[2,3-b]pyridine] | 6.37 nM | 7.19%
3 | CCN(C)S(=O)(=O)Nc1ccc(F)c(C(=O)c2c[nH]c3ncc(-c4cnc(N5CCN(C(=O)CC6(O)CCN(c7ccc(N[C@@H]8CCC(=O)NC8=O)cc7F)CC6)CC5)nc4)cc23)c1F [Example 174, 5-[2-[4-[2-[1-[4-[[(3R)-2,6-dioxo-3-piperidyl]amino]-2-fluoro-phenyl]-4-hydroxy-4-piperidyl]acetyl]piperazin-1-yl]pyrimidin-5-yl]-3-[3-[[ethyl(methyl)sulfamoyl]amino]-2,6-difluoro-benzoyl]-1H-pyrrolo[2,3-b]pyridine] | 2.39 nM | 9.44%
4 | CCN(C)S(=O)(=O)Nc1ccc(F)c(C(=O)c2c[nH]c3ncc(-c4ccc(N5CCN(C(=O)CC6(O)CCN(c7ccc(C8CCC(=O)NC8=O)cc7F)CC6)CC5)cc4)cc23)c1F (centres unmarked) [Example 175, 5-[4-[4-[2-[1-[4-(2,6-dioxo-3-piperidyl)-2-fluoro-phenyl]-4-hydroxy-4-piperidyl]acetyl]piperazin-1-yl]phenyl]-3-[3-[[ethyl(methyl)sulfamoyl]amino]-2,6-difluoro-benzoyl]-1H-pyrrolo[2,3-b]pyridine] | 7.12 nM | 9.59%
5 | CCN(C)S(=O)(=O)Nc1ccc(F)c(C(=O)c2c[nH]c3ncc(-c4ccc(N5CCN(C(=O)CC6(O)CCN(c7ccc(N[C@H]8CCC(=O)NC8=O)cc7F)CC6)CC5)nc4)cc23)c1F [Example 176, 5-[6-[4-[2-[1-[4-[[(3S)-2,6-dioxo-3-piperidyl]amino]-2-fluoro-phenyl]-4-hydroxy-4-piperidyl]acetyl]piperazin-1-yl]-3-pyridyl]-3-[3-[[ethyl(methyl)sulfamoyl]amino]-2,6-difluoro-benzoyl]-1H-pyrrolo[2,3-b]pyridine] | 5.84 nM | 9.54%

Continued, values first:

Row | DC50 | Emax | Structure (SMILES)
6 | 3.65 nM | 9.99% | CCN(C)S(=O)(=O)Nc1ccc(F)c(C(=O)c2c[nH]c3ncc(-c4ccc(N5CCN(C(=O)CC6(O)CCN(c7ccc(N[C@@H]8CCC(=O)NC8=O)cc7F)CC6)CC5)nc4)cc23)c1F [Example 177, 5-[6-[4-[2-[1-[4-[[(3R)-2,6-dioxo-3-piperidyl]amino]-2-fluoro-phenyl]-4-hydroxy-4-piperidyl]acetyl]piperazin-1-yl]-3-pyridyl]-3-[3-[[ethyl(methyl)sulfamoyl]amino]-2,6-difluoro-benzoyl]-1H-pyrrolo[2,3-b]pyridine]
7 | 2.71 nM | 9.65% | CCN(C)S(=O)(=O)Nc1ccc(F)c(C(=O)c2c[nH]c3ncc(-c4ccc(N5CCN(C(=O)CC6(O)CCN(c7ccc(N[C@@H]8CCC(=O)NC8=O)cc7F)CC6)CC5)cc4)cc23)c1F [Example 178, 5-[4-[4-[2-[1-[4-[[(3R)-2,6-dioxo-3-piperidyl]amino]-2-fluoro-phenyl]-4-hydroxy-4-piperidyl]acetyl]piperazin-1-yl]phenyl]-3-[3-[[ethyl(methyl)sulfamoyl]amino]-2,6-difluoro-benzoyl]-1H-pyrrolo[2,3-b]pyridine]
